Reference: paper PMC9481151, “Discovery of new symmetrical and asymmetrical nitrile-containing 1,4-dihydropyridine derivatives as dual kinases and P-glycoprotein inhibitors: synthesis, in vitro assays, and in silico studies” (Journal of Enzyme Inhibition and Medicinal Chemistry, 2022)

What was measured:
[1] = system: CCRF-CEM; test: NCI single dose (10 µM) SRB screen; assay type: cell-based, human; conditions: leukaemia, 48 h
[2] = system: HL-60(TB); test: NCI single dose (10 µM) SRB screen; assay type: cell-based, human; conditions: leukaemia, 48 h
[3] = system: K-562; test: NCI single dose (10 µM) SRB screen; assay type: cell-based, human; conditions: leukaemia, 48 h
[4] = system: MOLT-4; test: NCI single dose (10 µM) SRB screen; assay type: cell-based, human; conditions: leukaemia, 48 h
[5] = system: RPMI-8226; test: NCI single dose (10 µM) SRB screen; assay type: cell-based, human; conditions: leukaemia, 48 h
[6] = system: SR; test: NCI single dose (10 µM) SRB screen; assay type: cell-based, human; conditions: leukaemia, 48 h
[7] = system: A549/ATCC; test: NCI single dose (10 µM) SRB screen; assay type: cell-based, human; conditions: non-small cell lung cancer, 48 h
[8] = system: EKVX; test: NCI single dose (10 µM) SRB screen; assay type: cell-based, human; conditions: non-small cell lung cancer, 48 h
[9] = system: HOP-62; test: NCI single dose (10 µM) SRB screen; assay type: cell-based, human; conditions: non-small cell lung cancer, 48 h
[10] = system: HOP-92; test: NCI single dose (10 µM) SRB screen; assay type: cell-based, human; conditions: non-small cell lung cancer, 48 h
[11] = system: NCI-H226; test: NCI single dose (10 µM) SRB screen; assay type: cell-based, human; conditions: non-small cell lung cancer, 48 h
[12] = system: NCI-H23; test: NCI single dose (10 µM) SRB screen; assay type: cell-based, human; conditions: non-small cell lung cancer, 48 h
[13] = system: NCI-H322M; test: NCI single dose (10 µM) SRB screen; assay type: cell-based; conditions: non-small cell lung cancer, 48 h
[14] = system: NCI-H460; test: NCI single dose (10 µM) SRB screen; assay type: cell-based, human; conditions: non-small cell lung cancer, 48 h
[15] = system: NCI-H522; test: NCI single dose (10 µM) SRB screen; assay type: cell-based, human; conditions: non-small cell lung cancer, 48 h
[16] = system: COLO 205; test: NCI single dose (10 µM) SRB screen; assay type: cell-based, human; conditions: colon cancer, 48 h
[17] = system: HCC-2998; test: NCI single dose (10 µM) SRB screen; assay type: cell-based, human; conditions: colon cancer, 48 h
[18] = system: HCT-116; test: NCI single dose (10 µM) SRB screen; assay type: cell-based, human; conditions: colon cancer, 48 h
[19] = system: HCT-15; test: NCI single dose (10 µM) SRB screen; assay type: cell-based, human; conditions: colon cancer, 48 h
[20] = system: HT29; test: NCI single dose (10 µM) SRB screen; assay type: cell-based, human; conditions: colon cancer, 48 h
[21] = system: KM12; test: NCI single dose (10 µM) SRB screen; assay type: cell-based, human; conditions: colon cancer, 48 h
[22] = system: SW-620; test: NCI single dose (10 µM) SRB screen; assay type: cell-based, human; conditions: colon cancer, 48 h
[23] = system: SF-268; test: NCI single dose (10 µM) SRB screen; assay type: cell-based, human; conditions: CNS cancer, 48 h
[24] = system: SF-295; test: NCI single dose (10 µM) SRB screen; assay type: cell-based, human; conditions: CNS cancer, 48 h
[25] = system: SF-539; test: NCI single dose (10 µM) SRB screen; assay type: cell-based, human; conditions: CNS cancer, 48 h
[26] = system: SNB-19; test: NCI single dose (10 µM) SRB screen; assay type: cell-based, human; conditions: CNS cancer, 48 h
[27] = system: SNB-75; test: NCI single dose (10 µM) SRB screen; assay type: cell-based, human; conditions: CNS cancer, 48 h
[28] = system: U251; test: NCI single dose (10 µM) SRB screen; assay type: cell-based, human; conditions: CNS cancer, 48 h
[29] = system: LOX IMVI; test: NCI single dose (10 µM) SRB screen; assay type: cell-based, human; conditions: melanoma, 48 h
[30] = system: MALME-3M; test: NCI single dose (10 µM) SRB screen; assay type: cell-based, human; conditions: melanoma, 48 h
[31] = system: M14; test: NCI single dose (10 µM) SRB screen; assay type: cell-based, human; conditions: melanoma, 48 h
[32] = system: MDA-MB-435; test: NCI single dose (10 µM) SRB screen; assay type: cell-based, human; conditions: melanoma, 48 h
[33] = system: SK-MEL-2; test: NCI single dose (10 µM) SRB screen; assay type: cell-based, human; conditions: melanoma, 48 h
[34] = system: SK-MEL-28; test: NCI single dose (10 µM) SRB screen; assay type: cell-based, human; conditions: melanoma, 48 h
[35] = system: SK-MEL-5; test: NCI single dose (10 µM) SRB screen; assay type: cell-based, human; conditions: melanoma, 48 h
[36] = system: UACC-257; test: NCI single dose (10 µM) SRB screen; assay type: cell-based, human; conditions: melanoma, 48 h
[37] = system: UACC-62; test: NCI single dose (10 µM) SRB screen; assay type: cell-based, human; conditions: melanoma, 48 h
[38] = system: IGROV1; test: NCI single dose (10 µM) SRB screen; assay type: cell-based, human; conditions: ovarian cancer, 48 h
[39] = system: OVCAR-3; test: NCI single dose (10 µM) SRB screen; assay type: cell-based, human; conditions: ovarian cancer, 48 h
[40] = system: OVCAR-4; test: NCI single dose (10 µM) SRB screen; assay type: cell-based, human; conditions: ovarian cancer, 48 h
[41] = system: OVCAR-5; test: NCI single dose (10 µM) SRB screen; assay type: cell-based, human; conditions: ovarian cancer, 48 h
[42] = system: OVCAR-8; test: NCI single dose (10 µM) SRB screen; assay type: cell-based, human; conditions: ovarian cancer, 48 h
[43] = system: NCI/ADR-RES; test: NCI single dose (10 µM) SRB screen; assay type: cell-based, human; conditions: ovarian cancer, 48 h
[44] = system: SK-OV-3; test: NCI single dose (10 µM) SRB screen; assay type: cell-based, human; conditions: ovarian cancer, 48 h
[45] = system: 786-0; test: NCI single dose (10 µM) SRB screen; assay type: cell-based, human; conditions: renal cancer, 48 h
[46] = system: A498; test: NCI single dose (10 µM) SRB screen; assay type: cell-based, human; conditions: renal cancer, 48 h
[47] = system: ACHN; test: NCI single dose (10 µM) SRB screen; assay type: cell-based, human; conditions: renal cancer, 48 h
[48] = system: CAKI-1; test: NCI single dose (10 µM) SRB screen; assay type: cell-based, human; conditions: renal cancer, 48 h
[49] = system: RXF 393; test: NCI single dose (10 µM) SRB screen; assay type: cell-based, human; conditions: renal cancer, 48 h
[50] = system: SN12C; test: NCI single dose (10 µM) SRB screen; assay type: cell-based, human; conditions: renal cancer, 48 h
[51] = system: TK-10; test: NCI single dose (10 µM) SRB screen; assay type: cell-based, human; conditions: renal cancer, 48 h
[52] = system: UO-31; test: NCI single dose (10 µM) SRB screen; assay type: cell-based, human; conditions: renal cancer, 48 h
[53] = system: PC-3; test: NCI single dose (10 µM) SRB screen; assay type: cell-based, human; conditions: prostate cancer, 48 h
[54] = system: DU-145; test: NCI single dose (10 µM) SRB screen; assay type: cell-based, human; conditions: prostate cancer, 48 h
[55] = system: MCF7; test: NCI single dose (10 µM) SRB screen; assay type: cell-based, human; conditions: breast cancer, 48 h
[56] = system: MDA-MB-231; test: NCI single dose (10 µM) SRB screen; assay type: cell-based, human; conditions: breast cancer, 48 h
[57] = system: HS578T; test: NCI single dose (10 µM) SRB screen; assay type: cell-based, human; conditions: breast cancer, 48 h
[58] = system: BT-549; test: NCI single dose (10 µM) SRB screen; assay type: cell-based, human; conditions: breast cancer, 48 h
[59] = system: T-47D; test: NCI single dose (10 µM) SRB screen; assay type: cell-based, human; conditions: breast cancer, 48 h
[60] = system: MDA-MB-468; test: NCI single dose (10 µM) SRB screen; assay type: cell-based, human; conditions: breast cancer, 48 h
[61] = system: NCI 60 cancer cell lines; test: NCI single dose (10 µM) SRB screen, mean over panel; assay type: cell-based, human; conditions: mean over 60 cell lines, 48 h
[62] = system: Staphylococcus aureus; test: Agar well diffusion method; conditions: relative to ciprofloxacin
[63] = system: Bacillus subtilis; test: Agar well diffusion method; conditions: relative to ciprofloxacin
[64] = system: Escherichia coli; test: Agar well diffusion method; conditions: relative to ciprofloxacin
[65] = system: Pseudomonas aeruginosa; test: Agar well diffusion method; conditions: relative to ciprofloxacin
[66] = system: Candida albicans; test: Agar well diffusion method; conditions: relative to clotrimazole
[67] = system: Aspergillus flavus; test: Agar well diffusion method; conditions: relative to clotrimazole

SMILES: CCOC(=O)C1=C(C)NC(C)=C(C(=O)OCC(C)C)C1c1cccc(C#N)c1 (racemic) [Compound 2i, (±)-3-Ethyl 5-isobutyl 4-(3-cyanophenyl)-2,6-dimethyl-1,4-dihydropyridine-3,5-dicarboxylate]
- GI% CCRF-CEM [1]: – (Only GI% ≥ 10 are shown)
- GI% HL-60(TB) [2]: – (Only GI% ≥ 10 are shown)
- GI% K-562 [3]: 24%
- GI% MOLT-4 [4]: 21%
- GI% RPMI-8226 [5]: – (Only GI% ≥ 10 are shown)
- GI% SR [6]: 23%
- GI% A549/ATCC [7]: 10%
- GI% EKVX [8]: 29%
- GI% HOP-62 [9]: – (Only GI% ≥ 10 are shown)
- GI% HOP-92 [10]: 18%
- GI% NCI-H226 [11]: 22%
- GI% NCI-H23 [12]: 24%
- GI% NCI-H322M [13]: – (Only GI% ≥ 10 are shown)
- GI% NCI-H460 [14]: – (Only GI% ≥ 10 are shown)
- GI% NCI-H522 [15]: 13%
- GI% COLO 205 [16]: – (Only GI% ≥ 10 are shown)
- GI% HCC-2998 [17]: – (Only GI% ≥ 10 are shown)
- GI% HCT-116 [18]: 23%
- GI% HCT-15 [19]: 30%
- GI% HT29 [20]: – (Only GI% ≥ 10 are shown)
- GI% KM12 [21]: – (Only GI% ≥ 10 are shown)
- GI% SW-620 [22]: – (Only GI% ≥ 10 are shown)
- GI% SF-268 [23]: – (Only GI% ≥ 10 are shown)
- GI% SF-295 [24]: 31%
- GI% SF-539 [25]: – (Only GI% ≥ 10 are shown)
- GI% SNB-19 [26]: – (Only GI% ≥ 10 are shown)
- GI% SNB-75 [27]: 18%
- GI% U251 [28]: – (Only GI% ≥ 10 are shown)
- GI% LOX IMVI [29]: 20%
- GI% MALME-3M [30]: – (Only GI% ≥ 10 are shown)
- GI% M14 [31]: – (Only GI% ≥ 10 are shown)
- GI% MDA-MB-435 [32]: – (Only GI% ≥ 10 are shown)
- GI% SK-MEL-2 [33]: – (Only GI% ≥ 10 are shown)
- GI% SK-MEL-28 [34]: – (Only GI% ≥ 10 are shown)
- GI% SK-MEL-5 [35]: 12%
- GI% UACC-257 [36]: – (Only GI% ≥ 10 are shown)
- GI% UACC-62 [37]: 27%
- GI% IGROV1 [38]: – (Only GI% ≥ 10 are shown)
- GI% OVCAR-3 [39]: – (Only GI% ≥ 10 are shown)
- GI% OVCAR-4 [40]: 12%
- GI% OVCAR-5 [41]: – (Only GI% ≥ 10 are shown)
- GI% OVCAR-8 [42]: – (Only GI% ≥ 10 are shown)
- GI% NCI/ADR-RES [43]: 22%
- GI% SK-OV-3 [44]: – (Only GI% ≥ 10 are shown)
- GI% 786-0 [45]: 11%
- GI% A498 [46]: – (Only GI% ≥ 10 are shown)
- GI% ACHN [47]: – (Only GI% ≥ 10 are shown)
- GI% CAKI-1 [48]: 35%
- GI% RXF 393 [49]: 30%
- GI% SN12C [50]: – (Only GI% ≥ 10 are shown)
- GI% TK-10 [51]: – (Only GI% ≥ 10 are shown)
- GI% UO-31 [52]: – (Only GI% ≥ 10 are shown)
- GI% PC-3 [53]: 29%
- GI% DU-145 [54]: – (Only GI% ≥ 10 are shown)
- GI% MCF7 [55]: 34%
- GI% MDA-MB-231 [56]: – (Only GI% ≥ 10 are shown)
- GI% HS578T [57]: 13%
- GI% BT-549 [58]: – (Only GI% ≥ 10 are shown)
- GI% T-47D [59]: 32%
- GI% MDA-MB-468 [60]: 24%
- Mean GI% [61]: 9%
- melting point: 120 to 121 °C
- % activity index, S. aureus [62]: – (Values below 25 are of limited value and not shown as they refer either to inactive or non-diffusing compounds)
- % activity index, B. subtilis [63]: – (Values below 25 are of limited value and not shown as they refer either to inactive or non-diffusing compounds)
- % activity index, E. coli [64]: – (Values below 25 are of limited value and not shown as they refer either to inactive or non-diffusing compounds)
- % activity index, P. aeruginosa [65]: – (Values below 25 are of limited value and not shown as they refer either to inactive or non-diffusing compounds)
- % activity index, C. albicans [66]: – (Values below 25 are of limited value and not shown as they refer either to inactive or non-diffusing compounds)
- % activity index, A. flavus [67]: – (Values below 25 are of limited value and not shown as they refer either to inactive or non-diffusing compounds)
